Patent US7939534B2, “Certain chemical entities, compositions, and methods” (Cytokinetics, Inc., priority 2006, dated 2011)

biological target: T1, chicken gizzard smooth muscle myosin subfragment-1 chemically crosslinked to either cardiac or skeletal actin (Gallus gallus, UniProt P10587); experiment: Dose dependent smooth muscle myosin ATPase modulation (pyruvate kinase/horseradish peroxidase/pyruvate oxidase-coupled ATPase assay); type: biochemical; settings: read-out: IC50 Arithmetic Mean
T1 construct: chicken gizzard smooth muscle myosin subfragment-1; from tissue; host or cells: chicken gizzard
How it was run: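 Chicken gizzard smooth muscle myosin S1 crosslinked (EDC/NHS) to cardiac or skeletal actin, concentration titrated to a set ATPase rate. Pyruvate kinase/pyruvate oxidase/HRP-coupled assay, 0.15 mM ATP, 12 mM K-PIPES pH 7.00, 100 mM KCl, amplex red fluorescence; IC50 from 4-parameter fit.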

IC50	Molecule
16.7 µM	O=C(NCc1cccnc1)c1ccc(N2CCC(O)(c3ccccc3)CC2)nc1NCCc1cccc(F)c1 [Compound 111, (2-{[2-(3-fluorophenyl)ethyl]amino}-6-(4-hydroxy-4-phenylpiperidyl)(3-pyridyl))-N-(3-pyridylmethyl)carboxamide]
1.56 µM	CCOC(=O)C1CCN(c2ccc(C(=O)NCc3cccnc3)c(NCCc3cccc(F)c3)n2)CC1 [Compound 112, ethyl 1-(6-{[2-(3-fluorophenyl)ethyl]amino}-5-[N-(3-pyridylmethyl)carbamoyl]-2-pyridyl)piperidine-4-carboxylate]
0.431 µM	O=C(NCc1cccnc1)c1ccc(N2CC[C@H](F)C2)nc1NCCc1cccc(F)c1 [Compound 113, (6-((3S)-3-fluoropyrrolidinyl)-2-{[2-(3-fluorophenyl)ethyl]amino}(3-pyridyl))-N-(3-pyridylmethyl)carboxamide]
11 µM	CNC(=O)C1CCN(c2ccc(C(=O)NCc3cccnc3)c(NCCc3cccc(F)c3)n2)CC1 [Compound 114, (2-{[2-(3-fluorophenyl)ethyl]amino}-6-[4-(N-methylcarbamoyl)piperidyl](3-pyridyl))-N-(3-pyridylmethyl)carboxamide]
0.756 µM	O=C(NCc1cccnc1)c1ccc(N2CCC(O)CC2)nc1NCCc1cccc(F)c1 [Compound 115, (2-{[2-(3-fluorophenyl)ethyl]amino}-6-(4-hydroxypiperidyl)(3-pyridyl))-N-(3-pyridylmethyl)carboxamide]
31.8 µM	O=C(NCc1cccnc1)c1ccc(N2CCNCC2)nc1NCCc1cccc(F)c1 [Compound 116, (2-{[2-(3-fluorophenyl)ethyl]amino}-6-piperazinyl(3-pyridyl))-N-(3-pyridylmethyl)carboxamide]
20.7 µM	CC(=O)NC1CCN(c2ccc(C(=O)NCc3cccnc3)c(NCCc3cccc(F)c3)n2)C1 (centres unmarked) [Compound 118, N-[1-(6-{[2-(3-fluorophenyl)ethyl]amino}-5-[N-(3-pyridylmethyl)carbamoyl]-2-pyridyl)pyrrolidin-3-yl]acetamide]
7.21 µM	O=C(NCc1cccnc1)c1ccc(N2CCOC(CO)C2)nc1NCCc1cccc(F)c1 (centres unmarked) [Compound 119, (2-{[2-(3-fluorophenyl)ethyl]amino}-6-[2-(hydroxymethyl)morpholin-4-yl](3-pyridyl))-N-(3-pyridylmethyl)carboxamide]
59.5 µM	CN[C@H]1CCN(c2ccc(C(=O)NCc3cccnc3)c(NCCc3cccc(F)c3)n2)C1 [Compound 120, (6-[(3S)-3-(methylamino)pyrrolidinyl]-2-{[2-(3-fluorophenyl)ethyl]amino}(3-pyridyl))-N-(3-pyridylmethyl)carboxamide]
1.57 µM	O=C(NCc1cccnc1)c1ccc(N2CCSCC2)nc1NCCc1cccc(F)c1 [Compound 121, (2-{[2-(3-fluorophenyl)ethyl]amino}-6-(1,4-thiazaperhydroin-4-yl)(3-pyridyl))-N-(3-pyridylmethyl)carboxamide]
29.9 µM	O=C(NCc1cccnc1)c1ccc(N2CCS(=O)(=O)CC2)nc1NCCc1cccc(F)c1 [Compound 122, (6-(1,1-dioxo(1,4-thiazaperhydroin-4-yl))-2-{[2-(3-fluorophenyl)ethyl]amino}(3-pyridyl))-N-(3-pyridylmethyl)carboxamide]
8.57 µM	CC(=O)N1CCN(c2ccc(C(=O)NCc3cccnc3)c(NCCc3cccc(F)c3)n2)CC1 [Compound 123, (6-(4-acetylpiperazinyl)-2-{[2-(3-fluorophenyl)ethyl]amino}(3-pyridyl))-N-(3-pyridylmethyl)carboxamide]
29.7 µM	O=C(NCc1cccnc1)c1ccc(N2CCC(N3CCCCC3)CC2)nc1NCCc1cccc(F)c1 [Compound 124, (2-{[2-(3-fluorophenyl)ethyl]amino}-6-(4-piperidylpiperidyl)(3-pyridyl))-N-(3-pyridylmethyl)carboxamide]
3.16 µM	CCOC(=O)N1CCN(c2ccc(C(=O)NCc3cccnc3)c(NCCc3cccc(F)c3)n2)CC1 [Compound 125, ethyl 4-(6-{[2-(3-fluorophenyl)ethyl]amino}-5-[N-(3-pyridylmethyl)carbamoyl]-2-pyridyl)piperazinecarboxylate]
0.212 µM	N-{[(2R)-1-(2-aminoacetyl)pyrrolidin-2-yl]methyl}(5-fluoro-2-{[2-(3-fluorophenyl)ethyl]amino}-6-pyrrolidinyl(3-pyridyl))carboxamide [Compound 76]
0.308 µM	N-{[(2R)-1-(4-aminobutanoyl)pyrrolidin-2-yl]methyl}(5-fluoro-2-{[2-(3-fluorophenyl)ethyl]amino}-6-pyrrolidinyl(3-pyridyl))carboxamide [Compound 74]

Molecule	IC50
N-[((2R)-1-{4-[(tert-butoxy)carbonylamino]butanoyl}pyrrolidin-2-yl)methyl](5-fluoro-2-{[2-(3-fluorophenyl)ethyl]amino}-6-pyrrolidinyl(3-pyridyl))carboxamide [Compound 75]	8.55 µM
